# Patent US20090142304A1, “Composition for Improving Intestinal Flora” (priority 2005, published 2009)
# How the values were obtained:
# Assay type in all cases: in vivo
# [1] = test system: lactic acid bacteria belonging to genus Lactobacillus; assay: Growth effect on lactic acid bacteria in human intestine by intake of 1-kestose (Example 1, fecal count, Mitsuoka method)
# Source text: (§1) Quantitative determination of intestinal lactic acid bacteria counts can be carried out by a conventional method. For example, the lactic acid bacteria counts can be quantitatively determined according to the Mitsuoka's method (Mitsuoka Tomotari, “Chounaikin no Sekai (The World of Intestinal Bacteria)”, Sobunsha Co., Ltd., Tokyo, p. 53-65) by sampling feces of a tested subject. The intestinal Bifidobacterium count can be similarly quantitatively determined.
# (§2) A sample composition containing 99.4% of 1-kestose, 0.15% of acesulfame potassium, 0.32% of sucralose and 0.13% of Sweetness Enhancer ME-2208T (Trade Name) (Firmenich SA) was used (all by % by weight).
# In a test, each 10 g per day of the sample composition was fed orally for 2 months to 7 male and female test subjects with mild diabetes in the age range of 20 to 70 years. Samples of the feces of the respective subjects were collected just before the start of intake (month 0), 2 months after the start of intake (month 2) and 1 month after the end of intake (month 3), and the lactic acid bacteria counts in the samples were quantitatively determined by the method of Mitsuoka (Mitsuoka Tomotari “Chounaikin no Sekai (The World of Intestinal Bacteria)” Sobunsha Co., Ltd., Tokyo, p. 53-65). Similarly, the Bifidobacterium counts in the samples were quantitatively determined.
# By 5 out of the subjects 7, lactic acid bacteria belonging to genus Lactobacillus were detected at 10^6 CFU/g-feces or higher, and the changes of the lactic acid bacteria count and the Bifidobacterium count by the intake of 1-kestose with respect to the 5 subjects are shown in the Figures.
# Bifidobacterium [2] = assay: Growth effect on Bifidobacterium in human feces by intake of 1-kestose (Example 1); details: 10 g per day orally for 2 months, 5 mild diabetes subjects
# Source text: as §1, §2
# In a test, each 10 g per day of the sample composition was fed orally for 2 months to 7 male and female test subjects with mild diabetes in the age range of 20 to 70 years. Samples of the feces of the respective subjects were collected just before the start of intake (month 0), 2 months after the start of intake (month 2) and 1 month after the end of intake (month 3), and the lactic acid bacteria counts in the samples were quantitatively determined by the method of Mitsuoka (Mitsuoka Tomotari “Chounaikin no Sekai (The World of Intestinal Bacteria)” Sobunsha Co., Ltd., Tokyo, p. 53-65). Similarly, the Bifidobacterium counts in the samples were quantitatively determined. […]
# Lactobacillus sp. = assay: Growth effect on lactic acid bacteria in human feces by intake of Meioligo P (Example 2)
# Source text: as §1
# (§3) As a sample composition, Meioligo P (Trade Name) (Meiji Seika Kaisha), which was a composition containing 35% of 1-kestose, 55% of nystose and 10% of fructo-furanosyl nystose, was used.
# (§4) In a test, each 3 g per day of the sample composition (1.05 g based on the weight of 1-kestose) was fed orally for 2 months to 7 healthy female test subjects in the age range of 19 to 41 years. Samples of the feces of the respective subjects were then collected just before the start of intake (week 0), 2 weeks after the start of intake (week 2) and 2 weeks after the end of intake (week 4), and the lactic acid bacteria count and the Bifidobacterium count in the samples were quantitatively determined similarly to Example 1.
# (§5) The changes of the lactic acid bacteria count and the Bifidobacterium count in the feces by the intake of 1-kestose with respect to the 7 subjects are shown in the Figures.
# Bifidobacterium [3] = assay: Growth effect on Bifidobacterium in human feces by intake of Meioligo P (Example 2); details: fed as Meioligo P 3 g per day (1.05 g 1-kestose)
# Source text: as §1, §3, §4, §5
smiles,measurement,setting,value
OC[C@H]1O[C@@](CO)(OC[C@@]2(O[C@H]3O[C@H](CO)[C@@H](O)[C@H](O)[C@H]3O)O[C@H](CO)[C@@H](O)[C@@H]2O)[C@@H](O)[C@@H]1O [1-kestose],"increase of mean Lactobacillus sp. count, after vs before the intake","[1]; 10 g per day orally for 2 months, 5 mild diabetes subjects",about 10 fold
same,effect of the composition containing 1-kestose by lactic acid bacteria count in the feces,[1]; human whose lactic acid bacteria count in the feces is ≧10^6 CFU/g or higher (Example 1),stronger
same,subjects in whom the count of Lactobacillus sp. was increased by intake,"[1]; sample composition 99.4% 1-kestose, 10 g per day orally for 2 months, subjects with mild diabetes with Lactobacillus at 10^6 CFU/g-feces or higher (5 of 7)",4 out of the 5
same,"increase of mean Bifidobacterium count, after vs before the intake",Bifidobacterium [2],about 7 fold
same,subjects in whom the Bifidobacterium count was increased,Bifidobacterium [2]; sample composition 99.4% 1-kestose,all of 5
same,"increase of mean Lactobacillus sp. count, after vs before the intake","Lactobacillus sp.; fed as Meioligo P 3 g per day (1.05 g 1-kestose), 7 healthy females",about 20 fold
same,increase of Lactobacillus sp. count in each of the 4 subjects with increase,"Lactobacillus sp.; fed as Meioligo P 3 g per day (1.05 g 1-kestose), the 4 subjects with increase",≥ 10 fold
same,subjects in whom the count of Lactobacillus sp. was increased by intake,"Lactobacillus sp.; fed as Meioligo P (35% 1-kestose, 55% nystose, 10% fructo-furanosyl nystose), 3 g per day (1.05 g 1-kestose) orally, 7 healthy female subjects",4 out of 7
same,subjects in whom the Bifidobacterium count was increased,Bifidobacterium [3]; 7 healthy female subjects,6 out of the 7
same,"increase of mean Bifidobacterium count, after vs before the intake",Bifidobacterium [3]; 7 healthy females,about 2 fold
